{"source": "patent US9181172B2", "about": "“Rhein conjugates, preparation method thereof and their uses in producing medicines for treating diabetic nephrosis, intestinal adhesion and osteoarthritis” (priority 2005, dated 2015)", "assay_type_in_all_cases": "in vivo", "key": {"diabetic rats": {"system": "diabetic rats", "assay": "Diabetic nephrosis of obese diabetic rats (high-fat high-sugar diet plus STZ)", "settings": "six months, ig 65 mg/kg", "protocol": "Animal model of diabetic rats: after one month of high-fat high-sugar diet, the rats (about 180 g) were injected by sub-pathogenic dose (25 mg/kg) of streptozotocin (STZ) to induce the occurrence of diabetes. The model has the characteristics of moderate hyperglycemia, hyperlipidemia and insulin resistance as well as pathological changes of typical diabetic nephrosis.\n• 1. Conventional feedstuff control group: distilled water. • 2. Diabetes model group: distilled water. • 3. Rhein lysine diabetes treatment group: a month after STZ injection, rhein lysine complex [prepared with distilled water, intragastric infusion for rats according to 90 mg/kg (0.209 mmol/kg) dose] was administered referred to treatment group 1. • 4. Rhein sodium diabetes treatment group: a month after STZ injection, rhein sodium [prepared with distilled water, intragastric infusion for rats, according to 65 mg/kg (0.212 mmol/kg) dose] was administered, referred to treatment group 2. • 5. Rhein lysine diabetes prevention group: one week after STZ injection, rhein lysine conjugates were administered [prepared with distilled water and intragastric infusion for rats, according to 90 mg/kg (0.209 mmol/kg) dose], referred to prevention group 1. • 6. Rhein sodium diabetes prevention group: one week after STZ injection, rhein sodium were administered [prepared with distilled water and intragastric infusion for rats, according to 65 mg/kg (0.212 mmol/kg ) dose], referred to prevention group 2."}, "[1]": {"system": "obese rats of high-fat and high-sugar diet", "assay": "Body weight of obese rats of high-fat and high-sugar diet", "settings": "Group E", "source_text": "Group A: conventional diet, 4 weeks later, started to carry on intragastric administration, and the same volume of distilled water as the control, once daily, three weeks in succession.\nGroup B: high-fat high-sugar diet, 4 weeks later, started to carry on intragastric administration, and the same volume of distilled water as the model control, once daily, three weeks in succession.\nGroup C: high-fat high-sugar diet, 4 weeks later, started to carry on intragastric administration of rhein lysine conjugates [dose: 90 mg/kg (0.209 mmol/kg), prepared by distilled water], once daily, three weeks in succession.\nGroup D: high-fat high-sugar diet, 4 weeks later, started to carry on intragastric administration of rhein lysine conjugates [dose: 45 mg/kg (0.105 mmol/kg), prepared by distilled water], once daily, three weeks in succession.\nGroup E: high-fat high-sugar diet, 4 weeks later, started to carry on intragastric administration of rhein sodium [dose: 65 mg/kg (0.212 mmol/kg), prepared by distilled water], once daily, three weeks in succession."}, "rats [2]": {"system": "rats", "assay": "Formation of cotton ball granuloma in rats (Example 59 Test 2)", "settings": "12 mg/kg intragastric, two weeks", "protocol": "Rats were randomly divided into five groups (model control group, indomethacin group, rhein glucosamine large dose group and low dose group and rhein sodium group). Each group included 10 rats, and built models according to the method in the literature [Xu Shuyun, Methodology in Pharmacological Experiment (the 3rd version): 918]. The rats were administered by medicines from the day when starting the operation. […] The rats were killed in two weeks, and tests were performed according to the methods in the literature, the net weight of granulation was calculated, and t test was used for the intergroup comparison."}, "mice [3]": {"system": "mice", "assay": "Intestinal propulsion in mice", "settings": "dosage 12 mg/kg, intravenous injection", "protocol": "Fifty mice, male, weighting from 18 to 22 g, were randomly divided into five groups, namely, model control group, domperidone group, rhein sodium group, rhein glucosamine large dose group and low dose group.\nEach group has 10 mice respectively. The mice were fasted, but water was not prohibited, and then administered with medicines by intravenous injection. After that, tests were carried on immediately according to the methods in the literature[Xu Shuyun, Methodology in Pharmacological Experiment (the 3rd version): 1313]. The intestinal propulsive rates were calculated, and t test was used for the intergroup comparison."}, "rats [4]": {"system": "rats", "assay": "Intestinal adhesion in rats", "settings": "6 mg/kg once a day, 7th day", "protocol": "Rats were fasted for 12 h and models were built according to the methods in the literature [Xu Shuyun, Methodology in Pharmacological Experiment (the 3rd version): 1335]. The rats were randomly divided into five groups, namely, model control group, dexamethasone group, rhein sodium group, rhein glucosamine large dose group and low dose group. Each group included 12 rats. […] The rats of the model group were administered with the same volume of NS, while the rats of the positive control group were administered with dexamethasone, administered once every two days, dose: 10 mg/kg. The administration volume was the same as the treatment group. The rats were killed on the 7th day and carried on laparotomy. Adhesion degree was classified and scored respectively. The classification and score of the observed index-adhesion degree can refer to the five-grade classification method prepared by Nair, and determine the classification standard, see Schedule 13. Intestinal adhesion classification adopts Ridit analysis. The test results are as follows (Table 14): […]"}, "rats [5]": {"system": "rats", "assay": "Carrageenan-induced acute pleurisy exudation and leukoplania in rats", "settings": "intraperitoneal 20 mg/kg, four hours after carrageenan", "protocol": "Forty male rats of 200±20 g weight were selected and divided into five groups, namely, model control group, indomethacin group, rhein sodium group, rhein glucosamine large dose group and small dose group. Eight rats for each group. The rats were administered with medicines by intraperitoneal administration, one hour later, the rats were induced with acute pleurisy by carrageenan according to the method in the literature [Xu Shuyun, Methodology in Pharmacological Experiment (the 3rd version): 916]. Four hours later, the rats were killed and the volume of pleural effusion and total white cell count were measured."}, "mice [6]": {"system": "mice", "assay": "Immune function in mice (clearance index, phagocytic index)", "settings": "ig 40 mg/kg, 3 days", "protocol": "Fifty Kunming mice, half male and half female, weighing 18-22 g each were selected and randomly divided into five groups, namely, model control group, cyclophosphamide group, rhein sodium group, rhein glucosamine large dose group and small dose group, 10 mice for each group. The mice were administered with medicines by intragastric administration, 0.2 ml/10 g body weight, once every day and administered for 3 days in succession. After the mice were administered with medicines, 30 minutes later, test was carried on according to the method in the literature [Xu Shuyun, Methodology in Pharmacological Experiment (the 3rd version): 934]. The […] and corrected phagocytic index α were calculated, and t-test was conducted for statistical analysis."}}, "note": "Counter-ions that a name gives are not always drawn."}
{"smiles": "O=C(O)c1cc(O)c2c(c1)C(=O)c1cccc(O)c1C2=O", "note": "[Rhein sodium salt, rhein sodium salt]", "values": [{"measurement": "Urine protein", "setting": "diabetic rats; preventive administration from one week after STZ", "result": "11.54 ± 2.98", "unit": "mg/24 h"}, {"measurement": "Kidney weight index (double kidney weight/body weight × 10^4)", "setting": "diabetic rats; preventive administration", "result": "5.21 ± 0.68"}, {"measurement": "Serum total cholesterol", "setting": "diabetic rats; preventive administration", "result": "2.89 ± 0.31", "unit": "mM"}, {"measurement": "Serum triacylglycerol", "setting": "diabetic rats; preventive administration", "result": "1.68 ± 0.45"}, {"measurement": "Steady blood sugar level", "setting": "diabetic rats; preventive administration", "result": "6.7 ± 0.8", "unit": "mmol/L"}, {"measurement": "Steady insulin level", "setting": "diabetic rats; preventive administration", "result": "72.6 ± 3.6", "unit": "uU/ml"}, {"measurement": "Weight", "setting": "diabetic rats; preventive administration", "result": "243 ± 12", "unit": "g"}, {"measurement": "blood sugar", "setting": "diabetic rats; preventive administration", "result": "15.08 ± 5.7", "unit": "mmol/L"}, {"measurement": "Urine protein", "setting": "diabetic rats; treatment from a month after STZ", "result": "16.15 ± 7.71", "unit": "mg/24 h"}, {"measurement": "Kidney weight index (double kidney weight/body weight × 10^4)", "setting": "diabetic rats; treatment", "result": "6.9 ± 0.83"}, {"measurement": "Serum total cholesterol", "setting": "diabetic rats; treatment", "result": "3.71 ± 0.63", "unit": "mM"}, {"measurement": "Serum triacylglycerol", "setting": "diabetic rats; treatment", "result": "1.66 ± 0.47"}, {"measurement": "Steady blood sugar level", "setting": "diabetic rats; treatment", "result": "5.9 ± 0.8", "unit": "mmol/L"}, {"measurement": "Steady insulin level", "setting": "diabetic rats; treatment", "result": "81 ± 4.5", "unit": "uU/ml"}, {"measurement": "Weight", "setting": "diabetic rats; treatment", "result": "229 ± 16", "unit": "g"}, {"measurement": "blood sugar", "setting": "diabetic rats; treatment", "result": "17.3 ± 3.3", "unit": "mmol/L"}, {"measurement": "The body weight increased 7 weeks after high-sugar high-fat diet", "setting": "[1]; after three weeks ig 65 mg/kg once daily", "result": "17.1 ± 4.1", "unit": "g"}, {"measurement": "The body weight increased 4 weeks after high-sugar high-fat diet", "setting": "[1]; before start of ig 65 mg/kg", "result": "15.8 ± 4.3", "unit": "g"}, {"measurement": "net weight of granulation", "setting": "rats [2]", "result": "15.87 ± 3.31", "unit": "mg"}, {"measurement": "Propulsive rate", "setting": "mice [3]", "result": "51.69 ± 7.1", "unit": "%"}, {"measurement": "Rating of adhesion degree 0", "setting": "rats [4]; number of 12 rats with completely no adhesion", "result": 1}, {"measurement": "Rating of adhesion degree III", "setting": "rats [4]; number of 12 rats with more than two adhering zones", "result": 3}, {"measurement": "Rating of adhesion degree I", "setting": "rats [4]; number of 12 rats with one adhering zone", "result": 4}, {"measurement": "Rating of adhesion degree IV", "setting": "rats [4]; number of 12 rats with organs adhering to abdominal wall directly", "result": 2}, {"measurement": "Rating of adhesion degree II", "setting": "rats [4]; number of 12 rats with two adhering zones", "result": 2}, {"measurement": "Volume of exudation fluid", "setting": "rats [5]", "result": "0.33 ± 0.12"}, {"measurement": "WBC", "setting": "rats [5]", "result": "3.98 ± 1.64 ×109/L"}, {"measurement": "Clearance index (k)", "setting": "mice [6]", "result": "0.0272 ± 0.0124"}, {"measurement": "Phagocytic index (α)", "setting": "mice [6]", "result": "4.9134 ± 0.7498"}]}
